Where a name gives a salt, the structure may show the parent alone.
Assays:
[1] = tested on: Dermatophagoides farinae; test: Y-tube olfactometer behavioural bioassay; format: in vivo
Description: (§1) A Y-tube olfactometer was used to observe the behavioural responses elicited by house dust mites, as described previously (Skelton et al., in press). For each experiment, a treatment and control stimulus was added (1 μl) to separate filter paper discs (1.5 cm diameter), allowed to dry for 1 min, and placed into each arm of the olfactometer. A power analysis was carried out at 80% power, 95% significance; to calculate appropriate sample sizes to see 40% difference in effect (70% to treatment) (STATA 8.2 software). […] Treatments comprised: (1) chromatography fractions derived from the D. farinae extract .v. hexane, (2) neryl formate (10 & 100 ng/μl) .v. hexane, (3) a female D. farinae extract .v. neryl formate, (4) a male D. farinae extract .v. neryl formate, and (5) a female D. pteronyssinus extract .v. neryl formate. Categorical data from the Y-tube olfactometer bioassays were tested with a Chi-squared test for goodness of fit, with a Yates correction factor (preference to a particular arm) (Fowler et al., 1998). Time data were log 10-transformed prior to parametric data analysis. A three-way ANOVA (Minitab 11 for Windows) was carried out to analyse if the log time to make a decision in the treatment arm (neryl formate) was affected by the concentration of neryl formate, gender and house dust mite species studied.

[2] = tested on: Dermatophagoides pteronyssinus; test: Y-tube olfactometer behavioural bioassay; format: in vivo; settings: for global responses (males and females) to the arm containing neryl formate: x^2=11.025, P<0.01, n=40
Description: as §1

[3] = tested on: Dermatophagoides farinae; test: Semi-field carpet disc lure bioassay with sticky trap; format: in vivo; settings: 10 ng/10 μl neryl formate in hexane on filter paper v. hexane; cut pile and loop pile carpet; 1-40 min
Description: (§2) Initially, a bioassay was designed to test the efficacy of neryl formate in attracting populations of the American house dust mite, Dermatophagoides farinae, and the European house dust mite, D. pteronyssinus, from carpet sections. The bioassay involved the placement of D. farinae and D. pteronyssinus onto cut carpet discs (5 cm in diameter) which were placed underneath a glass Petri dish to maintain humidity. Two types of carpet (both obtained from Heuga Home Flooring BV) were tested: cut pile (Simply Soft Aquarius) and loop pile (Working Week Boucle Ink Pad). Aliquots of a 10 ng/10 μl neryl formate solution (in hexane) were used for the lure treatment, whilst hexane alone was used for the control. Both solutions were injected onto filter paper discs (2 cm diameter) and placed into the centre of the carpet discs. After an allocated time interval (1, 5, 10, 20 or 40 min), a sticky trap was placed onto the carpet to capture the mites, and subsequently placed under a microscope to record the amount and position of the mites, to ascertain if the mites had moved from their original position. Data were analysed using a generalized linear model assuming a binomial distribution with a logit link and dispersion parameter equal to 1.0 (see Table 1). The analysis of deviance for both responses was obtained using the MODEL procedure as implemented in GenStat 8.0 (Rothamsted Research).

[4] = tested on: Dermatophagoides pteronyssinus; test: as above; format: in vivo; settings: 10 ng/10 μl neryl formate in hexane on filter paper v. hexane; cut pile and loop pile carpet; 1-40 min
Description: as §2

[5] = tested on: Caloglyphus polyphyllae mites; settings: Shimizu et al., 2001; cited from earlier work
[6] = tested on: Lardoglyphus konoi; settings: 10 ng/μl; Kuwahara et al., 1991; cited from earlier work
[7] = tested on: Dermatophagoides farinae; test: Acaricide lethal dosage bioassay; format: in vivo
[8] = 10 ng v. hexane, x^2=6.05, P<0.05, n=20

In the case of CC(C)=CCC/C(C)=C\COC=O [neryl formate, (Z)-3,7-dimethyl-2,6-octadienyl formate], the “response of females to neryl formate” value [1, 8] is reported as “significant response”, the “global responses of males and females to the arm containing neryl formate” value ([1]; 10 ng v. hexane, x^2=9.025, P<0.01, n=40) is reported as “significant” and the “global responses of males and females to the arm containing neryl formate” value ([1]; 100 ng v. hexane, x^2=4.225, P<0.05, n=40) is reported as “significant”. The “response of males to neryl formate” value ([1]; 100 ng v. hexane, x^2=6.05, P<0.05, n=20) was “significant response”, the “response to neryl formate or con-specific extract” value ([1]; females, v. female D. farinae extract, x^2=1.38, P=0.24, n=18) was “no significant difference” and the “response to synthetic neryl formate or con-specific extract containing naturally produced neryl formate” value ([1]; males, v. male D. farinae extract, x^2=0.10, P=0.75, n=14) was “no significant difference”. The “response of females to neryl formate” value ([2]; 10 ng v. hexane, x^2=4.05, P<0.05, n=20) was “significant response”, the “response of males to neryl formate” value [2, 8] was “significant response” and the “global responses (males and females) to the arm containing neryl formate” value ([2]; 10 ng v. hexane) was “significant”. For the same compound, the “response of females to neryl formate” value ([2]; 100 ng v. hexane, x^2=8.45, P<0.01, n=20) was “significant response”, the “global responses (males and females) to the arm containing neryl formate” value ([2]; 100 ng v. hexane) was “significant” and the “response to synthetic neryl formate or con-specific extract” value ([2]; females, v. female D. pteronyssinus extract, x^2=0.06, P=0.80, n=16) was “not significantly different”. The “number of mites retrieved on sticky traps” value [3] was “significantly increased” and the “number of mites retrieved on sticky traps” value [4] was “significantly increased”.
For CC(C)=CC/C=C(/C=O)CC=O [β-acaridial], the “amount at which mites significantly respond” value [5] is listed as 10 ng.
For CCC[C@@H](C)C[C@@H](C)C[C@@H](C)C[C@@H](C)OC=O [(1R,3R,5R,7R) lardolure, (1R,3R,5R,7R)-1,3,5,7-tetramethyldecyl formate], the “concentration at which mites significantly respond” value [6] is given as 10 ppm.
In the case of C/C=C(\C)C(=O)O[C@H]1C[C@@H](OC(C)=O)[C@@]2(C(=O)OC)CO[C@H]3[C@@H](O)[C@@](C)([C@]45O[C@@]4(C)[C@H]4C[C@@H]5O[C@@H]5OC=C[C@@]54O)[C@H]4[C@]1(CO[C@]4(O)C(=O)OC)[C@@H]32 [azadirachtin], the mortality [7] is reported as “little mortality”.
